In PubChem BioAssay (NCI):
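In this assay, cells in 96-well plates receive the compound at five concentrations for 48 hours. Endpoints are linearly interpolated between the surrounding concentrations. TGI marks complete inhibition of growth.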

How the values were obtained:
Assay in all cases: NCI-60 cell line screen, 48 h
[1] = tested on: SN12C renal
[2] = tested on: DLD-1 colon
[3] = tested on: COLO 205 colon
[4] = tested on: HCT-116 colon
[5] = tested on: SNB-75 CNS
[6] = tested on: RPMI-8226 leukemia
[7] = tested on: SK-MEL-5 melanoma
[8] = tested on: DMS 114 small cell lung
[9] = tested on: 786-0 renal
[10] = tested on: CCRF-CEM leukemia
[11] = tested on: SK-MEL-28 melanoma
[12] = tested on: CAKI-1 renal
[13] = tested on: XF 498 CNS
[14] = tested on: M19-MEL melanoma
[15] = tested on: IGROV1 ovarian
[16] = tested on: HL-60(TB) leukemia
[17] = tested on: SNB-19 CNS
[18] = tested on: KM12 colon
[19] = tested on: HOP-18 NSCLC
[20] = tested on: MOLT-4 leukemia
[21] = tested on: HCC-2998 colon
[22] = tested on: KM20L2 colon
[23] = tested on: U251 CNS
[24] = tested on: NCI-H522 lung
[25] = tested on: SK-MEL-2 melanoma
[26] = tested on: LXFL 529 NSCLC
[27] = tested on: K-562 leukemia
[28] = tested on: EKVX NSCLC
[29] = tested on: SF-268 CNS
[30] = tested on: UO-31 renal
[31] = tested on: RXF-631 renal
[32] = tested on: NCI-H460 lung
[33] = tested on: SNB-78 CNS
[34] = tested on: MALME-3M melanoma
[35] = tested on: HCT-15 colon
[36] = tested on: M14 melanoma
[37] = tested on: ACHN renal
[38] = tested on: SF-295 CNS
[39] = tested on: RXF 393 renal
[40] = tested on: NCI-H23 lung
[41] = tested on: HOP-62 NSCLC
[42] = tested on: HT29 colon
[43] = tested on: A549 NSCLC
[44] = tested on: OVCAR-4 ovarian
[45] = tested on: DMS 273 small cell lung
[46] = tested on: OVCAR-3 ovarian
[47] = tested on: SW-620 colon
[48] = tested on: TK-10 renal
[49] = tested on: UACC-62 melanoma
[50] = tested on: A498 renal
[51] = tested on: SK-OV-3 ovarian
[52] = tested on: UACC-257 melanoma
[53] = tested on: SF-539 CNS
[54] = tested on: OVCAR-8 ovarian
[55] = tested on: LOX IMVI melanoma
[56] = tested on: OVCAR-5 ovarian
[57] = tested on: HOP-92 NSCLC
[58] = tested on: SR leukemia
[59] = tested on: NCI-H226 lung

## CCOC(=O)c1cc(C(=O)O)c(=O)n2c1[nH]c1ccccc12
[1]
  TGI: > 100 µM
[2]
  TGI: > 100 µM
[3]
  TGI: > 100 µM
[4]
  TGI: > 100 µM
[5]
  TGI: > 100 µM
[6]
  TGI: > 100 µM
[7]
  TGI: > 100 µM
[8]
  TGI: > 100 µM
[9]
  TGI: > 100 µM
[10]
  TGI: > 100 µM
[11]
  TGI: > 100 µM
[12]
  TGI: > 100 µM
[13]
  TGI: > 100 µM
[14]
  TGI: > 100 µM
[15]
  TGI: > 100 µM
[16]
  TGI: > 100 µM
[17]
  TGI: > 100 µM
[18]
  TGI: > 100 µM
[19]
  TGI: > 100 µM
[20]
  TGI: > 100 µM
[21]
  TGI: > 100 µM
[22]
  TGI: > 100 µM
[23]
  TGI: > 100 µM
[24]
  TGI: > 100 µM
[25]
  TGI: > 100 µM
[26]
  TGI: > 100 µM
[27]
  TGI: > 100 µM
[28]
  TGI: > 100 µM
[29]
  TGI: > 100 µM
[30]
  TGI: 87.7 µM
[31]
  TGI: > 100 µM
[32]
  TGI: > 100 µM
[33]
  TGI: > 100 µM
[34]
  TGI: > 100 µM
[35]
  TGI: > 100 µM
[36]
  TGI: > 100 µM
[37]
  TGI: > 100 µM
[38]
  TGI: > 100 µM
[39]
  TGI: > 100 µM
[40]
  TGI: > 100 µM
[41]
  TGI: > 100 µM
[42]
  TGI: > 100 µM
[43]
  TGI: > 100 µM
[44]
  TGI: > 100 µM
[45]
  TGI: > 100 µM
[46]
  TGI: > 100 µM
[47]
  TGI: > 100 µM
[48]
  TGI: > 100 µM
[49]
  TGI: > 100 µM
[50]
  TGI: > 100 µM
[51]
  TGI: > 100 µM
[52]
  TGI: > 100 µM
[53]
  TGI: > 100 µM
[54]
  TGI: > 100 µM

## Nc1nc(Cl)cc(NCCCCCCNc2cc(Cl)nc(N)n2)n1
[1]
  TGI: > 100 µM
[2]
  TGI: > 100 µM
[3]
  TGI: > 100 µM
[4]
  TGI: > 100 µM
[5]
  TGI: > 100 µM
[6]
  TGI: > 100 µM
[7]
  TGI: > 100 µM
[9]
  TGI: > 100 µM
[10]
  TGI: > 100 µM
[12]
  TGI: > 100 µM
[13]
  TGI: 87 µM
[14]
  TGI: > 100 µM
[15]
  TGI: > 100 µM
[16]
  TGI: > 100 µM
[17]
  TGI: > 100 µM
[18]
  TGI: > 100 µM
[19]
  TGI: > 100 µM
[20]
  TGI: > 100 µM
[21]
  TGI: > 100 µM
[22]
  TGI: > 100 µM
[23]
  TGI: > 100 µM
[24]
  TGI: > 100 µM
[25]
  TGI: > 100 µM
[26]
  TGI: > 100 µM
[27]
  TGI: > 100 µM
[28]
  TGI: > 100 µM
[30]
  TGI: > 100 µM
[31]
  TGI: > 100 µM
[32]
  TGI: > 100 µM
[55]
  TGI: > 100 µM
[56]
  TGI: > 100 µM
[35]
  TGI: > 100 µM
[57]
  TGI: > 100 µM
[36]
  TGI: > 100 µM
[37]
  TGI: 22.5 µM
[38]
  TGI: > 100 µM
[39]
  TGI: > 100 µM
[40]
  TGI: > 100 µM
[41]
  TGI: > 100 µM
[42]
  TGI: > 100 µM
[58]
  TGI: > 100 µM
[43]
  TGI: > 100 µM
[44]
  TGI: > 100 µM
[45]
  TGI: > 100 µM
[46]
  TGI: > 100 µM
[59]
  TGI: > 100 µM
[47]
  TGI: > 100 µM
[48]
  TGI: > 100 µM
[49]
  TGI: 97.8 µM
[51]
  TGI: > 100 µM
[52]
  TGI: > 100 µM
[53]
  TGI: > 100 µM
[54]
  TGI: > 100 µM

## O=C1CN(c2ccccc2)C(=O)C1C(=O)Nc1ccc(Cl)c(Cl)c1 (stereo not given)
[1]
  TGI: 17.1 µM
[2]
  TGI: 23 µM
[3]
  TGI: 20.4 µM
[5]
  TGI: 19.2 µM
[7]
  TGI: 13.2 µM
[8]
  TGI: 13.3 µM
[10]
  TGI: > 100 µM
[11]
  TGI: 21.4 µM
[14]
  TGI: 14.8 µM
[15]
  TGI: 14.9 µM
[16]
  TGI: 9.66 µM
[17]
  TGI: 17.2 µM
[20]
  TGI: 11.7 µM
[22]
  TGI: 16.8 µM
[23]
  TGI: 14.9 µM
[24]
  TGI: 6.48 µM
[26]
  TGI: 14.3 µM
[27]
  TGI: 8.88 µM
[29]
  TGI: 21.2 µM
[30]
  TGI: 11.7 µM
[31]
  TGI: 14.3 µM
[56]
  TGI: 50.6 µM
[35]
  TGI: 13.1 µM
[57]
  TGI: 14.5 µM
[36]
  TGI: 12.6 µM
[37]
  TGI: 14.8 µM
[38]
  TGI: 14 µM
[40]
  TGI: 20.2 µM
[41]
  TGI: 6.33 µM
[42]
  TGI: 17.2 µM
[58]
  TGI: 5.87 µM
[43]
  TGI: 15.7 µM
[44]
  TGI: 24.5 µM
[45]
  TGI: 15.1 µM
[46]
  TGI: 12.6 µM
[47]
  TGI: 11.9 µM
[48]
  TGI: 18.5 µM
[49]
  TGI: 12.4 µM
[51]
  TGI: 15.8 µM
[52]
  TGI: 22.7 µM
[53]
  TGI: 16.3 µM

## CCCC/C=C1\CCC(CN2CCCC2)C1=O (stereo not given)
[1]
  TGI: 32 µM
[2]
  TGI: 12.8 µM
[3]
  TGI: 26.1 µM
[4]
  TGI: 27.3 µM
[5]
  TGI: 32.4 µM
[7]
  TGI: 31.1 µM
[8]
  TGI: 31.8 µM
[9]
  TGI: 3.62 µM
[10]
  TGI: 25 µM
[11]
  TGI: 29.1 µM
[13]
  TGI: 29.6 µM
[14]
  TGI: 33.5 µM
[15]
  TGI: 34.2 µM
[16]
  TGI: 31.4 µM
[17]
  TGI: 48.9 µM
[18]
  TGI: 8.28 µM
[20]
  TGI: 36.2 µM
[21]
  TGI: 33.7 µM
[22]
  TGI: 28.7 µM
[23]
  TGI: 19.6 µM
[25]
  TGI: 29.8 µM
[26]
  TGI: 3.21 µM
[27]
  TGI: 11.1 µM
[29]
  TGI: 29.9 µM
[30]
  TGI: 32.3 µM
[31]
  TGI: 32.4 µM
[32]
  TGI: 38.2 µM
[33]
  TGI: 57.2 µM
[34]
  TGI: 33.1 µM
[55]
  TGI: 21.7 µM
[56]
  TGI: 33.4 µM
[35]
  TGI: 11.2 µM
[57]
  TGI: 31.1 µM
[36]
  TGI: 23.4 µM
[37]
  TGI: 19.2 µM
[38]
  TGI: 36.4 µM
[40]
  TGI: 32.1 µM
[41]
  TGI: 33.3 µM
[42]
  TGI: 31.5 µM
[58]
  TGI: 24.5 µM
[43]
  TGI: 40.3 µM
[45]
  TGI: 34.3 µM
[46]
  TGI: 31.5 µM
[59]
  TGI: 31.8 µM
[47]
  TGI: 4.9 µM
[48]
  TGI: 6.3 µM
[49]
  TGI: 31.2 µM
[50]
  TGI: 28.2 µM
[51]
  TGI: 97.1 µM
[52]
  TGI: 32.8 µM
[53]
  TGI: 29.8 µM
[54]
  TGI: 28.5 µM
